In one series the test system is AMO1. The series is described as follows: Cell Titer Glo viability, AMO1 HMCL. The class given is cell-based, human. The settings on record: Homo sapiens; AMO1, CTG viability. As for the experimental part:
(§1) AMO-1 and OPM2 HMCLs were purchased from DSMZ (Braunschweig, Germany), XG1 and XG21 were obtained as described (Moreaux et al., 2011). HMCLs were cultured in RPMI 1640 medium, 10% FCS (control medium). For XG-IL-6 dependent HMCLs 2 ng/ml IL-6 was added. Cells were cultured in 96-well flat-bottom microtiter plates in the presence of a concentration range of selected compounds: AZD7762 and OTSSP167 (Selleck, euromedex), HITOPK032, XL413, SRPIN340 (Sigma), AZ3146, Centrinone B (Tocris). Cell Titer Glo Luminescent Assay (Promega, Madison, Wis., USA) was used to assess cell viability, and the 50% inhibition (IC50) was determined using GraphPad Prism software (http://www.graphpad.com/scientific-software/prism/).
(§2) Statistical comparisons were done with unpaired or paired Student's t-tests. The effect of drug combination was evaluated using the methods developed by Chou and Talalay (Chou and Talalay, 1984) by calculating the combination Index (CI), with CI<1, CI=1, and CI>1 respectively indicating synergism, additive effects, and antagonism. Here we used CI=0.90-1.10 to indicated additivity.
(Cellular ATP, detected with luciferase, serves as a proxy for viable cell number.)

In a further series the test system is OPM2. The series is described as follows: Cell Titer Glo viability, OPM2 HMCL. The class given is cell-based, human. The settings on record: Homo sapiens, OPM-2; OPM2, CTG viability. As for the experimental part:
as §1, §2

The next series concerns XG1. The series is described as follows: Cell Titer Glo viability, XG1 HMCL. The class given is cell-based, human. The settings on record: Homo sapiens; XG1, CTG viability. As for the experimental part: as §1, §2
In a further series the test system is XG21. The series is described as follows: Cell Titer Glo viability, XG21 HMCL. Type of series: cell-based, human. The settings on record: Homo sapiens; XG21, CTG viability. As to the method: as §1, §2
The subject of series [1] is AMO1 HMCL. The experiment in a line: Apoptosis (annexin V, PARP cleavage) by flow cytometry. Conditions: AMO1; sub-lethal Melphalan or Lenalidomide + inhibitor at IC20, 4 days. The class given is cell-based, human. The source says: FIG. 14 represents graphs showing that inhibitors increase apoptosis (annexin and PARP) in AMO1 cell line; Annexin and PARP were monitored by flow cytometry after 4 days treatments. p-value: *<0.05; **<0.01; ***<0.001.
FIG. 25 represents graphs illustrating that the co-treatments induce cell death and differentially affect DNA damages in AMO1 HMCL. Co-treatment with selected kinase inhibitors at IC20 and Melphalan or Lenalidomide.
(§3) Cells were culture in 12 wells plate for 4 days. Apoptotic cells were detected using phycoerythrin-conjugated Annexin V (PE-annexin V, BD Pharmingen). For the cell cycle and DNA damage, we used the Apoptosis, DNA damage and cell proliferation kit (BD), following the manufacturer's protocol.

Series [2] has as its system AMO1 HMCL. The series is described as follows: Cell cycle analysis by flow cytometry. Type of series: cell-based, human. Conditions: AMO1, single agent.
From the text: FIG. 15 represents graphs showing the effects of the treatments with inhibitors on cell cycle in AMO1 cells. p-value: *<0.05; **<0.01; ***<0.001.
FIG. 29 represents graphs illustrating that Co-treatments differentially affect cell cycle in AMO1 cell line. Cotreatment with Melphalan or Lenalidomide and A) AZD7762; B) OTSSP167; C) Centrinone B; D) XL413. Cell cycle was monitored by flow cytometry after 4 days co-treatments. p-value: *<0.05; **<0.01; ***<0.001.
as §3
A general note: Flow cytometry measures light scatter and fluorescence of single cells or particles in a stream.

The subject of series [3] is primary MM cells from patients. The series is described as follows: Primary myeloma cell cytotoxicity (CD138 flow cytometry). The class given is cell-based, human. Conditions: N=5 patients, 4 days of treatment. The source says:
FIG. 16 represents graphs showing the % of CD138+ cells after treatment by AZD7762, OTSSP167 and Centrinone B in 5 different primary MM cells.
FIG. 17 represents graphs showing that the three tested inhibitors reduce % of tumor MM cells without toxicity on normal BM microenvironment cells from patients (N=5). CD138 amount was monitored by flow cytometry after 4 days of treatment.
Bone marrow of patients presenting with previously untreated MM (N=5) at the university hospital of Montpellier was obtained after patients' written informed consent in accordance with the Declaration of Helsinki and agreement of the Montpellier University Hospital Centre for Biological Resources (DC-2008-417). Primary myeloma cells of patients were cultured with or without graded concentrations of selected inhibitors and MMC cytotoxicity evaluated using anti-CD138-Phycoerythrin monoclonal antibody and CD38-Allophycocyanin (Beckman-Coulter) as described (Moreaux et al., 2012).

The subject of series [4] is normal BM microenvironment cells from patients. The series is described as follows: Toxicity on non-tumoral bone marrow cells in primary patient cultures. Type of series: cell-based, human. The settings on record: N=5 patients, 4 days. The text has this: CD138 amount was monitored by flow cytometry after 4 days of treatment.
For series [5], the system named is primary Mouse myeloma (5T33vv) and mouse myeloma cell line (5T33vt). The experiment in a line: Mouse myeloma cell viability (CTG). The class given is cell-based. Conditions: 5T33vv and 5T33vt, CTG after 24, 48 or 96 hours. As to the method:
FIG. 18 represents graphs cell viability of primary Mouse myeloma (5T33vv) and mouse myeloma cell line (5T33vt), monitored by CTG after 24, 48 or 96 hours treatment with indicated inhibitors.

Series [6] deals with AMO1 HMCL. The series is described as follows: Proteome profiler array (phospho kinases, apoptosis proteins). The settings on record: AMO1, 48 h treatment. Type of series: cell-based, human. As to the method:
Proteins accumulations were monitored after 48 h treatment on AMO1 HMCL using proteome profiler array. Relative amount was calculated as the mean of pixel density. Phospho kinases and apoptosis proteins were quantified using the dedicated proteome Profiler™ array (RD systems, Bio-techne) following the manufacturer instructions. 500 μg and 300 μg protein were used for the two arrays respectively.

Another series deals with XG7 WT and XG7 Mres. The experiment in a line: Viability of melphalan sensitive and resistant cell lines (CTG). Type of series: cell-based, human. Conditions: inhibitor at IC20. As to the method: FIG. 32 represents a graph of the calculated IC50 for the co-treatment with melphalan and selected kinase inhibitors at IC20. Melphalan sensitive (XG7 WT) and Resistant (XG7 MRes) cell lines were treated for 4 days with the selected kinases inhibitors. Cell viability was monitored by the CTG. p-value: *<0.05; **<0.01; ***<0.001.
The facts that: 1) all drugs tested are actively decreasing HMCLs viability and induce apoptosis; 2) co-treatment with melphalan leads to synergy or potentialized the decrease of cell viability; 3) some of the selected kinases inhibitors can reverse the resistance to lenalidomide in AMO1 HMCL, led us to question the capability of these drugs to reverse or reduce also melphalan resistance. In that purpose, the inventors used a cell line developed in the inventors' laboratory, and that has been culture to resist to melphalan (Mres) compare to its negative control (WT) (FIG. 30). The inventors first tested the capacity of the different inhibitors to reduce cell viability in this model. All tested kinase's inhibitors lower cell viability of the control or the melphalan resistant cell line.

For series [7], the system named is HMCLs (AMO1, OPM2, XG1, XG21). The series is described as follows: HMCL viability, single and co-treatment with conventional MM drugs (CTG). The class given is cell-based, human. Conditions: inhibitor at IC20. As to the method: as §1, §2
Keeping in mind the main objective of identifying alternative and efficient complementary treatment for MM patients, the inventors next performed co-treatment on HMCLs with commonly used therapeutic drugs in MM (e.g. Melphalan, Lenalidomide, Velcade) and the different kinases inhibitors. In order to fit to the goal of a combination treatment the inventors used an arbitrary […] for all the kinases inhibitors, which the inventors associated with various concentration of the standard therapeutic.

The IC20 is the point of the concentration-response curve where the effect stands at 20%. What is called IC50 is the concentration needed to halve the response being measured. Regarding `NC(=O)Nc1cc(-c2cccc(F)c2)sc1C(=O)N[C@H]1CCCNC1` [AZD7762], the IC20 in the series on AMO1 is 82 nM. Besides, the IC50 with AMO1 is 136 nM; in the series with OPM2 it was 116 nM; in the series on XG1, 95 nM; in the series with XG21, 210 nM. For the same molecule, the “cell death via apoptosis (annexin) on co-treatment” value with AMO1 HMCL [1] is on record as “increase cell death via apoptosis”. In addition, in the series on AMO1 HMCL [2], the cell cycle arrest result was “arrested the cells in S phase”. For the same molecule, the “number of tumoral cells (CD138+)” value in [3] is recorded as “reduced the number of tumoral cells”. The “effect on non-tumoral cells” value in [4] is recorded as “barely affected”. In addition, the “cell viability in mouse cellular model of multiple myeloma” value in series [5] is on record as “demonstrated similar efficiency”. For the same molecule, in the series with AMO1 HMCL [6], the claspin and survivin result was “decrease in claspin and survivin”. Besides, in the series on XG7 WT and XG7 Mres, the “melphalan resistance on co-treatment with melphalan” value was “reversed the melphalan resistance”. Further, the “Lenalidomide treatment on co-treatment with kinase inhibitor” value in series [7] (AMO1 and OPM2) is on record as “potentialized”. Besides, the synergy with lenalidomide entry in [7] (XG1, XG21, AMO1, OPM2) was “synergized with the conventional treatment”. Besides, in [7] (XG1, XG21, AMO1, OPM2), the synergy with melphalan entry is listed as “synergized with the conventional treatment”.

The values above are taken from patent US11499197B2, “Prognosis method of multiple myeloma” (CENTRE NATIONAL DE LA RECHERCHE SCIENTIFIQUE, priority 2017, dated 2022).
